Results as given in patent publication US5556872A, “Histamine derivatives useful as immunomodulators” (The Board of Trustees of the Leland Stanford Junior …, priority 1995, dated 1996).
Values belong to the compound of their own block, whether it stands above or below them.

Experiments:
[1] = test system: IgG antibody response to horse myoglobin (h-Mb); experiment: Inhibition of IgG and IgG subclass antibody response to horse myoglobin in immunized mice (anti-horse myoglobin ELISA); assay type: in vivo, DBA/2 mice; conditions: vs saline control mice
Description: ELISA plates were coated with 10 ug/ml commercially available horse myoglobin (h-Mb) in PBS 50 ul/well overnight at 4 deg C. The plates were washed with PBS once. The plates were then coated with 50 ul BBA (1 mg/ml) and washed with PBS once. The plates were then coated with test serum diluted in PBS-Tween, 50 ul/well and incubated at 4 deg C. overnight. The plates were then washed with PBS-Tween three times. Anti-IgG (1:2000) was added and diluted with PBS-Tween. For the IgG antibody subclasses, anti-IgG1, anti-IgG2a, anti-IgG2b was diluted and added to selected wells. Incubation was at 4 deg C. for two hours. Washing was with PBS-Tween 2 times with 5 minutes between each wash. A 1 mg/ml OPD in citrate buffer solution pH5 was prepared and 10 ul of H2O2/10 ml was added to the buffer solution. 50 ul of buffer was added to each well and the plates were placed in the dark for about 10 minutes. The reaction was stopped with 50 ul of 5N H2SO4 in each well. The plates were then read on an Elisa reader.
The following immunization protocol was repeated several times. The results have been collected in FIGS. 1a-d.
This experiment was done using two groups of 2-6 DBA/2 mice (average weight 22 grams). One group of mice were given one treatment of compound 3 intravenously one day before antigen treatment (day-1) and two days following antigen treatment (day+2). The dose of compound 3 was approximately 36 mg/kg in 100 ul of PBS. The other group of mice was given a saline control in 100 ul PBS. On day 0 the two groups of mice were injected with 100 ug h-Mb in 100 ul CFA intravenously (i.v.). The mice were then boosted fourteen days later with 100 ug of h-Mb in 100 ul IFA. The mice were bled 30 days later.

H3 = experiment: Dominant interactions of congeners with histamine receptors: H3; assay type: binding; conditions: Human lymphocytes, monocytes and neutrophils
Hx = experiment: Dominant interactions of congeners with histamine receptors: Hx; assay type: binding, Human
H2 = H2 (Homo sapiens, UniProt P25021); experiment: Dominant interactions of congeners with histamine receptors: H2; assay type: binding
H1 = H1 (Homo sapiens, UniProt P35367); experiment: Dominant interactions of congeners with histamine receptors: H1; assay type: binding
human Ts cells = conditions: Khan et al. 1985, Sansoni et al. 1985; cited from earlier work
murine NS cells = conditions: in vitro; cited from earlier work
[2] = test system: phytohemagglutinin-induced Th proliferation; conditions: pretreatment of human Ts cells with histamine; mediated via H2 receptors; cited from earlier work
[3] = test system: pokeweed mitogen-induced B cell differentiation; conditions: pretreatment of human Ts cells with histamine; mediated via H2 receptors; cited from earlier work
[4] = comparable experiment using Compound 1, FIG. 3
[5] = compound 3 approx. 36 mg/kg i.v. day -1 and day +2, FIG. 1

H2, sequence (P25021 whole entry): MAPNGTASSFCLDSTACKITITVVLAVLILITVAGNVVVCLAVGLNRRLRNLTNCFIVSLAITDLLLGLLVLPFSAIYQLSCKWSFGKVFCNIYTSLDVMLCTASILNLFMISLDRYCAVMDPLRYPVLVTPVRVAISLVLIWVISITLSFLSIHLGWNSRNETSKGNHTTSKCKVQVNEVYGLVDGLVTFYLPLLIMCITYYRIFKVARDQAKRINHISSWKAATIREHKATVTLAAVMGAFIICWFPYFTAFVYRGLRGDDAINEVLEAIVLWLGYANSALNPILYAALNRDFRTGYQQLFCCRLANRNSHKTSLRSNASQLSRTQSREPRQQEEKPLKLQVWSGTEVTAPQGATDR
H1, sequence (P35367 whole entry): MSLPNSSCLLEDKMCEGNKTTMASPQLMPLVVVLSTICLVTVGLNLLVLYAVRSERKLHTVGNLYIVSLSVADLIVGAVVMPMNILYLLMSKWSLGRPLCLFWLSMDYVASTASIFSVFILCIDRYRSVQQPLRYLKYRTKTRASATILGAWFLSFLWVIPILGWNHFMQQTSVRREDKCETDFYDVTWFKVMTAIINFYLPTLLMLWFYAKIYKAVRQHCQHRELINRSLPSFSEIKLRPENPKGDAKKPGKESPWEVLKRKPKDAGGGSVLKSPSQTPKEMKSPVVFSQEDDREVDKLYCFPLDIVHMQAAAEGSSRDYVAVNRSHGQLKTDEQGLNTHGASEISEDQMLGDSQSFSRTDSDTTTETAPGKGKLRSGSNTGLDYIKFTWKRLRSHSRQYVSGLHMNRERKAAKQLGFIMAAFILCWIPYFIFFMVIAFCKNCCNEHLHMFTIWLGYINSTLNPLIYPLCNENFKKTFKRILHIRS

H3 dominant interaction (H3): AntiHx
SMILES: CC(CCCCC(=O)Nc1ccc(C(F)(F)F)cc1)NCCc1c[nH]cn1 (stereo not shown) [Compound 1, His--NH--CHCH3--(CH2)4 CONH--phi--CF3]
IgG1 response [1, 4]: lower
IgG2a response [1, 4]: lower
IgG response [1, 4]: lower

Hx activity (in words) (Hx): some Hx activity
H1 receptor activity (in words) (H1): not H1 receptor activity
SMILES: O=C(CCCCCNCCc1c[nH]cn1)Nc1ccc(C(F)(F)F)cc1 [Compound 3, His--NH--(CH2)5 CONH--phi--CF3]
H2 receptor activity (in words) (H2): has been shown to have H2 receptor activity
IgG1 response [1, 5]: lower
IgG2a response [1, 5]: lower
IgG2b response [1, 5]: lower
total IgG response to h-Mb [1, 5]: much lower

Hx dominant interaction (Hx; Human lymphocytes, monocytes and neutrophils): AntiHx
SMILES: NCCc1c[nH]cn1 [Histamine]
effect on human Ts cells (human Ts cells): activates human Ts cells
effect on suppressive ability of murine NS cells (murine NS cells): enhances the suppressive ability of murine NS cells in vitro
phytohemagglutinin-induced Th proliferation [2]: inhibited
pokeweed mitogen-induced B cell differentiation [3]: inhibited
